Values joined by “and” are separate entries in the source; they are usually repeats but may differ in a detail not shown here. Equal entries are not always repeated. Where two headings read alike, the source gives them in different places.
What was measured:
OVCAR-4 = experiment: NCI-60 screen, Ovarian Cancer OVCAR-4; type: cell-based, human; conditions: OVCAR-4, five doses 10^−4–10^−8 M
OVCAR-8 = experiment: NCI-60 screen, Ovarian Cancer OVCAR-8; type: cell-based, human
MCF7 = experiment: NCI-60 screen, Breast Cancer MCF7; type: cell-based, human
DU-145 = experiment: NCI-60 screen, Prostate C. DU-145; type: cell-based
MDA-MB-231/ATCC = experiment: NCI-60 screen, Breast Cancer MDA-MB-231/ATCC; type: cell-based
HS 578T = experiment: NCI-60 screen, Breast Cancer HS 578T; type: cell-based, human
KM12 = experiment: NCI-60 screen, Colon Cancer KM12; type: cell-based, human
HOP-92 = experiment: NCI-60 screen, Non-Small Cell Lung Cancer HOP-92; type: cell-based, human
[1] = system: 60 human cancer cell lines; experiment: NCI-60 anticancer screen, full panel; type: cell-based
MCF-7/WT = experiment: MTT cell viability assay, MCF-7/WT; type: cell-based; conditions: Homo sapiens, MCF7, 72 h, mean ± SD
Procedure: Twelve compounds (2a-e, 3a-d and 4a-c) at a concentration range of 50–5000 μM were tested for their antiproliferative potential against four human cancer cell lines (A375—melanotic melanoma, C32—amelanotic melanoma, DU145—prostate cancer androgen-independent, MCF-7/WT—breast adenocarcinoma) and two normal cell lines: Chinese Hamster Ovary (CHO-K1) and immortalized human keratinocytes from histologically normal skin (HaCaT).
To determine the antiproliferative activity of newly synthesized compounds, the following cell lines were used: human melanotic melanoma cell line (A375), human amelanotic melanoma cell line (C32), human breast adenocarcinoma cell line (MCF-7/WT), human prostate cancer androgen-independent (DU145) and two normal cell lines: hamster ovarian (CHO-K1) and immortalized human keratinocytes from histologically normal skin (HaCaT). The cells were obtained from the cell line bank of the Department of Molecular and Cellular Biology, Wroclaw Medical University. A375, C32, MCF-7/WT, DU145 and HaCaT cells were grown in a monolayer cultured in Dulbecco’s Modified Eagle’s Medium (DMEM, Sigma-Aldrich, Poznań, Poland), supplemented with 10% of fetal bovine serum (FBS, Gibco, Paisley, UK) and 1% of antibiotics (penicillin/streptomycin, Sigma-Aldrich) and CHO-K1 were grown in HAM’s F-12 medium (Sigma-Aldrich), supplemented with 10% fetal bovine serum (FBS, Gibco) and 1% of antibiotics (penicillin/streptomycin, Sigma-Aldrich). Cell lines were cultured in the polystyrene flasks 25 or 75 cm^2 (Thermo Fisher Scientific, Waltham, MA, USA), which were stored in 37 °C and 5% CO2 in a humidified 95% atmosphere (SteriCult, Thermo Scientific, Alab). The cell medium was exchanged twice a week. The exponentially growing cells were used throughout the experiments. The cells were rinsed with phosphate-buffered saline (PBS, Sigma-Aldrich) and trypsinized by Trypsin-EDTA 0.25% solution (Sigma-Aldrich).
The influence of the compounds was performed in a monolayer culture on cancer and normal cells. Compounds were initially dissolved in DMSO; further dilutions of the compound were performed in Dulbecco’s Modified Eagle’s Medium supplemented with 10% FBS. Compounds were tested in a 50–5000 µM concentration range. In the in vitro experiments, the concentrations of DMSO in the final solution of the compounds were used 0.05%; 0.1%; 0.5%; 1%, respectively.
Cell viability was determined using the MTT colorimetric assay. All cell lines were seeded into 96-well plates to a density of 3 × 10^4 cells/well. After 24 h, the culture supernatants were removed and appropriate dilutions of compounds in the culture medium (200 µL/well) were added to the cells’ monolayer cultures and incubated for an additional 72 h. After 72 h of exposition to the compounds and the removal of the culture medium, cell viability was determined by reducing the yellow dye 3-(4,5-dimethyl-2-thiazol)-2,5-diphenyl-2H-tetrazolium bromide (MTT assay, Sigma Saint Louis, MO, USA; In Vitro Toxicology Assay) to a blue formazan product. The absorbance of the resulting solutions in three duplicate experiments was measured at the wavelength of 560 nm in a microplate reader (EnSpire, Perkin Elmer, Kraków, Poland). MTT assay is a colorimetric method that estimates the rate of metabolism in viable cells. Absorbance is directly proportional to the number of viable cells. All the experiments were performed three times and the mean absorbance values were calculated. The methodology for the evaluation of the growth of human cancer and normal cells was described previously. The cell viability in each group was expressed as a percentage of control (untreated) cells.

SW620 = experiment: NCI-60 screen, Colon Cancer SW620; type: cell-based, human
[2] = Homo sapiens, HOP-92, five doses 10^−4–10^−8 M
[3] = over the panel, values > −4.00 excluded
[4] = Homo sapiens, SW-620, SW620, five doses 10^−4–10^−8 M

For FC(F)(F)c1nc(Cl)c2sc(=S)n(-c3ccccc3)c2n1 [Compound 3b, 7-chloro-3-phenyl-5-(trifluoromethyl)[1, 3]thiazolo[4,5-d]pyrimidine-2(3H)-thione], the “log TGI” value (OVCAR-4) was −5.44 log M, the GI50 (OVCAR-8; Homo sapiens, OVCAR-8, five doses 10^−4–10^−8 M) was 1950 nM and the CC50 (OVCAR-8; Homo sapiens, OVCAR-8, five doses 10^−4–10^−8 M, read-out: log LC50 (the source's name) (converted)) was > 100 µM. The “Growth of Cells (%)” value (OVCAR-8; OVCAR-8, 10^−5 M one dose) was 4.40%, the “log TGI” value (OVCAR-8; OVCAR-8, five doses 10^−4–10^−8 M) was −5.27 log M and the GI50 (MCF7; Homo sapiens, MCF7, five doses 10^−4–10^−8 M) was 2240 nM. The CC50 (MCF7; Homo sapiens, MCF7, five doses 10^−4–10^−8 M, read-out: log LC50 (the source's name) (converted)) was 57.5 µM, the “Growth of Cells (%)” value (MCF7; MCF7, 10^−5 M one dose) was 22.84% and the “log TGI” value (MCF7; MCF7, five doses 10^−4–10^−8 M) was −5.25 log M. The “Growth of Cells (%)” value (DU-145; DU-145, 10^−5 M one dose) was 9.04%, the “log TGI” value (DU-145; DU-145, five doses 10^−4–10^−8 M) was −5.46 log M and the GI50 (DU-145; Homo sapiens, DU-145, read-out: log GI50 (converted)) was 1860 nM. The CC50 (DU-145; Homo sapiens, DU-145, five doses 10^−4–10^−8 M, read-out: log LC50 (the source's name) (converted)) was 6.46 µM, the GI50 (MDA-MB-231/ATCC; Homo sapiens, MDA-MB-231, read-out: log GI50 (converted)) was 2000 nM and the CC50 (MDA-MB-231/ATCC; Homo sapiens, MDA-MB-231/ATCC, five doses 10^−4–10^−8 M, read-out: log LC50 (the source's name) (converted)) was 7.59 µM. The “Growth of Cells (%)” value (MDA-MB-231/ATCC; MDA-MB-231/ATCC, 10^−5 M one dose) was 13.85%, the “log TGI” value (MDA-MB-231/ATCC; MDA-MB-231/ATCC, five doses 10^−4–10^−8 M) was −5.41 log M and the “Growth of Cells (%)” value (HS 578T; 10^−5 M one dose) was 21.84%. For the same compound, the GI50 (HS 578T; Homo sapiens, five doses 10^−4–10^−8 M) was 2820 nM, the CC50 (HS 578T; Homo sapiens, five doses 10^−4–10^−8 M, read-out: log LC50 (the source's name) (converted)) was > 100 µM and the “log TGI” value (HS 578T; five doses 10^−4–10^−8 M) was −5.07 log M. The GI50 (KM12; Homo sapiens, KM12, five doses 10^−4–10^−8 M) was 2290 nM, the CC50 (KM12; Homo sapiens, KM12, five doses 10^−4–10^−8 M, read-out: log LC50 (the source's name) (converted)) was 14.5 µM and the “Growth of Cells (%)” value (KM12; KM12, 10^−5 M one dose) was 90.93%. The “log TGI” value (KM12; KM12, five doses 10^−4–10^−8 M) was −5.30 log M, the “Growth of Cells (%)” value (HOP-92; HOP-92, 10^−5 M one dose) was −21.23% and the “log TGI” value (HOP-92; HOP-92, five doses 10^−4–10^−8 M) was −5.56 log M. The GI50 (HOP-92; [2]) was 1260 nM, the LC50 (HOP-92; [2]) was 5.89 µM and the “Mean Growth %” value ([1]; 10^−5 M one dose, mean over the panel) was 29.51%. The GI50 ([1]; Homo sapiens, five doses 10^−4–10^−8 M, mean graph midpoint over all tested cell lines, read-out: log GI50 Mean MG_MID (converted)) was 2190 nM, the CC50 ([1]; Homo sapiens, five doses 10^−4–10^−8 M, mean graph midpoint over all tested cell lines, read-out: log LC50 Mean MG_MID (converted)) was 16.6 µM and the CC50 ([1]; Homo sapiens, one number printed for the pair, read-out: log LC50 MG_MID/Δ (converted)) was 16.6 µM. The “log TGI Mean MG_MID” value ([1]; five doses 10^−4–10^−8 M, mean graph midpoint over all tested cell lines) was −5.30 log M and −5.3 log M, the “N2: number of cell lines giving positive log TGI (≤−4.01)” value ([1]; of N = 58 tested cell lines) was 58 and the “log GI50 Range” value [1, 3] was −4.86 to −6.69 log M. For the same compound, the “log LC50 Range” value [1, 3] was −4.03 to −5.82 log M, the “log TGI Range” value [1, 3] was −4.31 to −6.33 log M and the IC50 (MCF-7/WT) was 49 ± 1 µM. For the same compound, the GI50 (SW620; [4]) was 2140 nM, the LC50 (50% lethal concentration) (SW620; [4]) was 21.4 µM and the “Growth of Cells (%)” value (SW620; SW620, 10^−5 M one dose) was −63.05%. For the same compound, the “log TGI” value (SW620; SW620, five doses 10^−4–10^−8 M) was −5.32 log M.

Source: article PMC8778818, “Synthesis, Structural Characterization and Anticancer Activity of New 5-Trifluoromethyl-2-thioxo-thiazolo[4,5-d]pyrimidine Derivatives” (Pharmaceuticals, 2022)
